Where two headings read alike, the source gives them in different places.
Columns and labels:
kalirin GEF domain [1] = biological target: T1, kalirin GEF domain (Homo sapiens, UniProt O60229); test: Fluorescence thermal shift (FTS) binding to kalirin GEF domain
kalirin = biological target: T2, kalirin (Homo sapiens, UniProt O60229); test: Miniaturized high-throughput GEF assay with bodipy-GDP loaded RAC1; type: biochemical
T2 construct: intrinsic activity of RAC1 in the absence of kalirin's GEF domain (No GEF)
Protocol: FIG. 11 illustrates that reaction rates from FIG. 10 were assessed and plotted against concentration.
This was assessed using a miniaturized high-throughput GEF assay, utilizing fluorescently labelled GDP (bodipy-GDP) loaded RAC1.

HEK293T cells = details: 24 hours, Cell-titre Glo
Protocol: Cell viability was assessed by cell-titre glo assay. […] Indicated values indicate the required concentration to reduce viability by 50%.
Compound was incubated with heterologous cells (HEK293T) for 24 hours, and cell death was measured using the Cell-titre Glo assay.

[2] = tested on: primary cultured rat neurons; test: Multi-electrode array (MEA) analysis of electrical activity of primary cultured neurons; type: cell-based
Protocol: FIG. 16A-16F show multi-electrode array analyses of the electrical activity of primary cultured neurons was assessed in the presence of compound B04, alongside the known RAC1 inhibitor NSC23776. […] Dose response analysis confirmed activity of B04 (123 μM, FIG. 16D and FIG. +16F). However, NSC23766 (FIG. 16C and FIG. 16E) had 10× efficacy (7.4 μM) compared to previous results.
Indicated PP01 analogues were incubated with rat primary cultured cortical neurons at 50 μM to assess the ability to recapitulate PP01s ability to inhibit neuronal activity.
48 well multi-electrode arrays (MEAs) were seeded with 50,000 primary cultured rat neurons and grown to 3WIV. Cells were incubated with NSC23766 or B04 at 50 and 100 μM for 4 hours alongside vehicle control (1% DMSO, FIG. 16A-16B). Neuronal activity was assessed in terms of weighted mean firing rate (number of events per second across active electrodes) and burst frequency (>5 events in 100 ms within a single electrode) and network burst frequency (FIG. 16A-16D).
DRC curve analyses of NS23766 (FIGS. 16C and 16E) and B04 (FIGS. 16D and 16F) was performed to assess compound efficacy. […] This is likely due to reported off-target inhibition of NMDAr (Hou et al 2014).
Plate was treated with vehicle control or B04 for 4 hours. The % change from baseline was recorded. […] Drug resistance from overexpression is a known phenomenon, supporting target engagement (Palmer et al, 2014).

kalirin GEF domain [3] = biological target: T1, kalirin GEF domain; test: Cellular GEF assay (RAC-Glisa) in cells transfected with kalirin-GEF domain; type: cell-based; set-up: Cells were transfected with the kalirin-GEF domain; expressed in transfected cells; host or cells: HEK293T (inferred from the same paragraph's toxicity test; the sentence on transfection says only 'Cells')
Excerpt: Known compound, NSC23766 (FIGS. 14A and 14C), was run alongside B04 (FIGS. 14B and 14D) to confirm GEF inhibition (IC50 of NSC23766 matches published results).

| SMILES | binding to kalirin by FTS (thermodynamic stability of kalirin GEF domain) (kalirin GEF domain [1]) | inhibition of kalirin biochemical GEF activity (kalirin) | cellular toxicity / tolerability (HEK293T cells) | IC50 ([2]; PP01 analogues, FIG. 31A-31C, read-out: IC50, inhibition of neuronal activity) [µM] | inhibition of neuronal activity ([2]; rat primary cultured cortical neurons, 50 μM, 4 and 24 hours) | burst frequency ([2]; 4 hours, 50 and 100 μM) | firing rate (weighted mean firing rate) ([2]; 4 hours, 50 and 100 μM) | inhibitory efficacy in neurons compared to published reports and cellular activity ([2]; fold greater) [×] | IC50 ([2]; primary cultured neurons, 4 hours treatment, FIG. 16C-16F, read-out: dose response activity on neuronal electrical activity) [µM] | inhibition of kalirin activity (RAC1 activation) (kalirin GEF domain [3]) |
| --- | --- | --- | --- | --- | --- | --- | --- | --- | --- | --- |
| Cc1cc2cc(Nc3ccnc(Nc4ccc5[nH]c(C)cc5c4)n3)ccc2[nH]1 [AZA1] | not bind to kalirin | inhibited GEF activity | Only NSC23766 and B04 were well tolerated | – | – | – | – | – | – | – |
| CC(C)c1cn2c(NC(=O)Cc3c[nH]c4ccccc34)cccc2n1 [NW12, 2-(1H-indol-3-yl)-N-[2-(propan-2-yl)-1H-imidazo[1,2-a]pyridine-5-yl]acetamide] | – | – | suitable for in vitro cellular studies | < 5 | inhibited activity robustly | – | – | – | – | – |
| O=C1C=CC(=O)N1c1cccc([N+](=O)[O-])c1 [NPPD] | not bind to kalirin | inhibited GEF activity | Only NSC23766 and B04 were well tolerated | – | – | – | – | – | – | – |
| CCN(CC)CCCC(C)Nc1nc(C)cc(Nc2ccc3nc(C)cc(N)c3c2)n1 (stereo not shown) [NSC23766] | not bind to kalirin | inhibited GEF activity | well tolerated | – | – | reduced | reduced | 10 | 7.4 | inhibit kalirin activity |
| O=C1C=C2C(=CCOC2O)O1 (stereo not shown) [patulin] | bond to kalirin | inhibited GEF activity | – | – | – | – | – | – | – | – |

Source: patent US20250101004A1, “NOVEL KALIRIN INHIBITORS FOR REGULATION OF SYNAPTIC PLASTICITY AND NEUROPATHIC PAIN TREATMENT” (Northwestern University, priority 2022, published 2025)
